Experimental data: PubChem BioAssay (NCI)
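In this assay, cells in 96-well plates receive the compound at five concentrations for 48 hours. Endpoints are linearly interpolated between the surrounding concentrations. GI50 marks 50% less growth. TGI: total growth inhibition.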

Key:
Assay in all cases: NCI-60 cell line screen, 48 h
MDA-MB-231 breast = system: MDA-MB-231 breast
SK-MEL-5 melanoma = system: SK-MEL-5 melanoma
T-47D breast = system: T-47D breast
UACC-62 melanoma = system: UACC-62 melanoma
SF-295 CNS = system: SF-295 CNS
HL-60(TB) leukemia = system: HL-60(TB) leukemia
U251 CNS = system: U251 CNS
HCT-116 colon = system: HCT-116 colon
UO-31 renal = system: UO-31 renal
DU-145 prostate = system: DU-145 prostate
HCC-2998 colon = system: HCC-2998 colon
NCI-H23 lung = system: NCI-H23 lung
A549 NSCLC = system: A549 NSCLC
SF-268 CNS = system: SF-268 CNS
SNB-75 CNS = system: SNB-75 CNS
HOP-62 NSCLC = system: HOP-62 NSCLC
NCI-H522 lung = system: NCI-H522 lung
TK-10 renal = system: TK-10 renal
OVCAR-4 ovarian = system: OVCAR-4 ovarian
RXF 393 renal = system: RXF 393 renal
MCF7 breast = system: MCF7 breast
CCRF-CEM leukemia = system: CCRF-CEM leukemia
OVCAR-5 ovarian = system: OVCAR-5 ovarian
OVCAR-8 ovarian = system: OVCAR-8 ovarian
ACHN renal = system: ACHN renal
PC-3 prostate = system: PC-3 prostate
786-0 renal = system: 786-0 renal
MOLT-4 leukemia = system: MOLT-4 leukemia
M14 melanoma = system: M14 melanoma
IGROV1 ovarian = system: IGROV1 ovarian
HT29 colon = system: HT29 colon
RPMI-8226 leukemia = system: RPMI-8226 leukemia
CAKI-1 renal = system: CAKI-1 renal
NCI-H460 lung = system: NCI-H460 lung
MDA-MB-435 = system: MDA-MB-435
K-562 leukemia = system: K-562 leukemia
SF-539 CNS = system: SF-539 CNS
BT-549 breast = system: BT-549 breast
COLO 205 colon = system: COLO 205 colon
SW-620 colon = system: SW-620 colon
NCI/ADR-RES ovarian = system: NCI/ADR-RES ovarian
MALME-3M melanoma = system: MALME-3M melanoma
KM12 colon = system: KM12 colon
SR leukemia = system: SR leukemia
LOX IMVI melanoma = system: LOX IMVI melanoma
HS 578T breast = system: HS 578T breast
NCI-H226 lung = system: NCI-H226 lung
SNB-19 CNS = system: SNB-19 CNS
SN12C renal = system: SN12C renal
OVCAR-3 ovarian = system: OVCAR-3 ovarian
A498 renal = system: A498 renal
UACC-257 melanoma = system: UACC-257 melanoma
SK-MEL-2 melanoma = system: SK-MEL-2 melanoma
HCT-15 colon = system: HCT-15 colon
SK-OV-3 ovarian = system: SK-OV-3 ovarian
EKVX NSCLC = system: EKVX NSCLC
SK-MEL-28 melanoma = system: SK-MEL-28 melanoma

`O=C1OCC2=C1C(c1cccc(Br)c1)c1cc3c(cc1N2CCO)OCCO3` (stereo not drawn) was tested, and the GI50 (MDA-MB-231 breast) was 209 nM, the TGI (MDA-MB-231 breast) was 2850 nM and the GI50 (SK-MEL-5 melanoma) was 34.8 nM. It also gave a TGI (SK-MEL-5 melanoma) of 252 nM, a GI50 (T-47D breast) of 379 nM and a TGI (T-47D breast) of over 41300 nM. It also gave a GI50 (UACC-62 melanoma) of 22 nM, a TGI (UACC-62 melanoma) of over 23700 nM and a GI50 (SF-295 CNS) of 18.4 nM. The TGI (SF-295 CNS) was 417 nM, the GI50 (HL-60(TB) leukemia) was 45.2 nM and the TGI (HL-60(TB) leukemia) was 362 nM. The GI50 (U251 CNS) was 59.6 nM, the TGI (U251 CNS) was 6070 nM and the GI50 (HCT-116 colon) was 59.5 nM. The TGI (HCT-116 colon) was 2070 nM, the GI50 (UO-31 renal) was 127 nM and the TGI (UO-31 renal) was 36500 nM. For the same compound, the GI50 (DU-145 prostate) was 107 nM, the TGI (DU-145 prostate) was 752 nM and the GI50 (HCC-2998 colon) was 92.7 nM. For the same compound, the TGI (HCC-2998 colon) was 1710 nM, the GI50 (NCI-H23 lung) was 91.1 nM and the TGI (NCI-H23 lung) was over 44500 nM. The GI50 (A549 NSCLC) was 131 nM, the TGI (A549 NSCLC) was 5970 nM and the GI50 (SF-268 CNS) was 76.6 nM. The TGI (SF-268 CNS) was 8380 nM, the GI50 (SNB-75 CNS) was 39.7 nM and the TGI (SNB-75 CNS) was over 35400 nM. The GI50 (HOP-62 NSCLC) was 89.1 nM, the TGI (HOP-62 NSCLC) was 18700 nM and the GI50 (NCI-H522 lung) was 11.6 nM. The TGI (NCI-H522 lung) was 47.8 nM, the GI50 (TK-10 renal) was 101 nM and the TGI (TK-10 renal) was 16900 nM. It also gave a GI50 (OVCAR-4 ovarian) of 131 nM, a TGI (OVCAR-4 ovarian) of over 50000 nM and a GI50 (RXF 393 renal) of 12 nM. For the same compound, the TGI (RXF 393 renal) was 36.1 nM, the GI50 (MCF7 breast) was 103 nM and the TGI (MCF7 breast) was over 50000 nM. It also gave a GI50 (CCRF-CEM leukemia) of 76.3 nM, a TGI (CCRF-CEM leukemia) of over 26300 nM and a GI50 (OVCAR-5 ovarian) of 221 nM. The TGI (OVCAR-5 ovarian) was over 33700 nM, the GI50 (OVCAR-8 ovarian) was 120 nM and the TGI (OVCAR-8 ovarian) was 1540 nM. The GI50 (ACHN renal) was 103 nM, the TGI (ACHN renal) was over 34000 nM and the GI50 (PC-3 prostate) was 54.6 nM. For the same compound, the TGI (PC-3 prostate) was 8740 nM, the GI50 (786-0 renal) was 69.5 nM and the TGI (786-0 renal) was 3660 nM. The GI50 (MOLT-4 leukemia) was 225 nM, the TGI (MOLT-4 leukemia) was over 42200 nM and the GI50 (M14 melanoma) was 42.1 nM. It also gave a TGI (M14 melanoma) of 453 nM, a GI50 (IGROV1 ovarian) of 117 nM and a TGI (IGROV1 ovarian) of over 43800 nM. It also gave a GI50 (HT29 colon) of 50.7 nM, a TGI (HT29 colon) of 233 nM and a GI50 (RPMI-8226 leukemia) of 71.4 nM. It also gave a TGI (RPMI-8226 leukemia) of 14000 nM, a GI50 (CAKI-1 renal) of 52.2 nM and a TGI (CAKI-1 renal) of 7540 nM. It also gave a GI50 (NCI-H460 lung) of 58.8 nM, a TGI (NCI-H460 lung) of 2210 nM and a TGI (MDA-MB-435) of 24.1 nM. For the same compound, the GI50 (K-562 leukemia) was 55 nM, the TGI (K-562 leukemia) was over 27700 nM and the GI50 (SF-539 CNS) was 51 nM. For the same compound, the TGI (SF-539 CNS) was 460 nM, the GI50 (BT-549 breast) was 136 nM and the TGI (BT-549 breast) was 6350 nM. The GI50 (COLO 205 colon) was 79 nM, the TGI (COLO 205 colon) was 371 nM and the GI50 (SW-620 colon) was 52.7 nM. The TGI (SW-620 colon) was over 27900 nM, the GI50 (NCI/ADR-RES ovarian) was 63.5 nM and the TGI (NCI/ADR-RES ovarian) was 273 nM. It also gave a GI50 (MALME-3M melanoma) of 28.8 nM, a TGI (MALME-3M melanoma) of 20800 nM and a GI50 (KM12 colon) of 44.2 nM. It also gave a TGI (KM12 colon) of 2310 nM, a GI50 (SR leukemia) of 127 nM and a TGI (SR leukemia) of 31000 nM. For the same compound, the GI50 (LOX IMVI melanoma) was 107 nM, the TGI (LOX IMVI melanoma) was 9280 nM and the GI50 (HS 578T breast) was 71.5 nM. It also gave a TGI (HS 578T breast) of over 21300 nM, a GI50 (NCI-H226 lung) of 72 nM and a TGI (NCI-H226 lung) of 738 nM. The GI50 (SNB-19 CNS) was 84.6 nM, the TGI (SNB-19 CNS) was over 50000 nM and the GI50 (SN12C renal) was 188 nM. It also gave a TGI (SN12C renal) of over 27100 nM, a GI50 (OVCAR-3 ovarian) of 34.5 nM and a TGI (OVCAR-3 ovarian) of 96.7 nM. The GI50 (A498 renal) was 16.7 nM, the TGI (A498 renal) was 466 nM and the GI50 (UACC-257 melanoma) was 26.1 nM. For the same compound, the TGI (UACC-257 melanoma) was 15300 nM, the GI50 (SK-MEL-2 melanoma) was 42.6 nM and the TGI (SK-MEL-2 melanoma) was 1290 nM. The GI50 (HCT-15 colon) was 76.6 nM, the TGI (HCT-15 colon) was over 50000 nM and the GI50 (SK-OV-3 ovarian) was 67 nM. For the same compound, the TGI (SK-OV-3 ovarian) was 4040 nM, the GI50 (EKVX NSCLC) was 1300 nM and the TGI (EKVX NSCLC) was 48700 nM. For the same compound, the GI50 (SK-MEL-28 melanoma) was 88.4 nM and the TGI (SK-MEL-28 melanoma) was over 50000 nM.
